Laboratory results taken from patent US20230068687A1, “PROCESS FOR PREPARING A SOLID FORM OF BASIC AMINO ACID SALTS OF POLYUNSATURATED FATTY ACIDS” (SILICYCLE INC., priority 2020, published 2023).

Assays:
[1] = Oxidative status (peroxide value, anisidine value) of starting materials and products as obtained, CDR FoodLab Junior analyzer; type: physicochemical; conditions: as obtained / as used, before storage
Protocol: The final product in powder form is isolated by evaporating said first and second organic solvents and water from the reaction mixture to recover said basic amino acid salts of PUFAs. Preferably, said evaporation step is carried under reduced pressure between about 0° C.-70° C. depending on the properties of the equipment used. […] The evaporation step requires said first/second organic solvents and water to be in a liquid form, thereby excluding the freeze-drying methods that require the solvents to be frozen. The oxidative status of the obtained final product is quantified by peroxide value (PV), anisidine value (AV) and Totox value. PV is a measure of the level of the primary oxidation products (lipid hydroperoxides) in the product, which is specified in milliequivalents O2 per kg of sample, while the AV is an unspecific measure of saturated and unsaturated carbonyl compounds. Totox is calculated by the equation Totox=2*PV+AV.
(§1) Food Lab Analyzer: Among several techniques known in the art for determining the oxidative levels of a sample, CDR FoodLab® Junior analyzer is used herein for determining PV and AV. The procedures are described as below.
(§2) The solid product 0.5 g was dissolved in 2 mL of MeOH and HCl solution with the ratio of 1:10 (v/v). The mixture was stirred for 5 minutes, followed by the addition of 5 mL of water. The mixture was extracted with 3 mL of Hexane containing 100 ppm butylated hydroxytoluene (BHT). The organic layer was dried over MgSO4, filtrated and evaporated under reduced pressure at the temperature of 0-70° C. to get the fish oil in free acid form, which was evaluated with the CDR FoodLab® Junior analyzer to get anisidine and peroxide values using the Food Lab analyzer.

[2] = Stability examination of L-lysine salts stored in clear vials with closed lids at room temperature (Table 1); type: physicochemical; conditions: for TOTOX: Totox=2*PV+AV; for AV / PV: closed lids, room temperature
Protocol: The comparison of oxidative status of basic amino acid salts of PUFAs, starting material in ester form and fish oil in free acid form are assessed by measuring the PV and AV, then all the samples are subjected to the same oxidizing condition over a certain period of time, followed by the measuring PV and AV of the samples. The oxidizing conditions are selected from one of: 1) storage in closed containers at atmospheric condition, opened once daily for the first month, twice weekly for the second month, once weekly for the third month and twice a month up to 6 months; 2) storage in loosely closed containers exposed to air at 45° C. for 1 month.
as §1, §2
(§3) The molar ratio of EPA to L-lysine was 1:1. The mixture was stirred at atmospheric condition for 5 minutes to obtain a homogenous solution. 30 mL of ethanol was added to precipitate the L-lysine amino acid salt. […] About 4.5 g of EPA-Lys was stored in a 20 ml of clear vial with a diameter of 27 mm, which was placed with closed lids on the bench at room temperature for the stability examination for 90 days.
as §3, with “ratio of DHA to L-lysine” for “ratio of EPA to L-lysine”
The molar ratio of seal oil in free acid form to L-lysine was 1:1. The mixture was stirred at atmospheric condition for 5 minutes to obtain a homogenous solution. 35 mL of ethanol was added to precipitate the L-lysine amino acid salt.

Compound	AV (anisidine value) [1]	PV (peroxide value) [1]	TOTOX ([2]; Time 1 d)	AV ([2]; Time 1 d)	PV ([2]; Time 1 d)	TOTOX ([2]; Time 61 d)	AV ([2]; Time 61 d)	PV ([2]; Time 61 d)
CC/C=C\C/C=C\C/C=C\C/C=C\C/C=C\C/C=C\CCC(=O)O.NCCCC[C@H](N)C(=O)O [DHA-Lys, L-Lysine Salt of Docosahexaenoic Acid]	29.3 A/g	16.0 meqO2/kg	61.3	29.3 A/g	16.0 meq O2/Kg	11.8	4.0 A/g	3.9 meq O2/Kg
CC/C=C\C/C=C\C/C=C\C/C=C\C/C=C\CCCC(=O)O.NCCCC[C@H](N)C(=O)O [EPA-Lys, L-Lysine Salt of Eicosapentaenoic Acid]	9.5 A/g	6.0 meqO2/kg	21.5	9.5 A/g	6.0 meq O2/Kg	3.8	<0.5 A/g	1.9 meq O2/Kg
